This is an account of results in ChEMBL document CHEMBL4020849, “4,6-Diaminopyrimidines as Highly Preferred Troponin I-Interacting Kinase (TNNI3K) Inhibitors” (J Med Chem, 2018).

Bounds are passed on as bounds.

One data set deals with Rattus norvegicus. Kind of data set: Dose normalized AUC in Sprague-Dawley rat plasma at 2 mg/kg, po administered as gastric bolus dose by LC-MS/MS analysis. It is filed as ADME, organism-based. The conditions noted are these: in vivo.
A short description of data set [1]: Volume of distribution at steady state in Sprague-Dawley rat plasma at 2 mg/kg, po administered as gastric bolus dose or 1 mg/kg, iv administered as 30 mins infusion by LC-MS/MS analysis. It is filed as ADME, organism-based. The conditions noted are these: read-out: Vdss.
For a further data set, the system named is Heart. Kind of data set: Drug uptake in mouse heart at 100 mg/kg/day administered through diet. The class given is ADME, organism-based. As to conditions: in vivo, read-out: Drug uptake.
Data set [2] deals with Epidermal growth factor receptor (Homo sapiens, UniProt P00533). Kind of data set: Inhibition of EGFR (unknown origin).
Data set [3] in a line: Half life in Sprague-Dawley rat plasma at 2 mg/kg, po administered as gastric bolus dose or 1 mg/kg, iv administered as 30 mins infusion by LC-MS/MS analysis. The class given is ADME, organism-based.
Data set [4] in a line: Selectivity index, ratio of IC50 for full length His6-tagged BRAF (unknown origin) expressed in baculovirus expression system to IC50 for human full length His/MBP-fused TNNI3K expressed in baculovirus expression system.
For data set [5], the system named is Blood. Kind of data set: Drug uptake in mouse blood at 100 mg/kg/day administered through diet. It is filed as ADME, organism-based. The conditions noted are these: in vivo, read-out: Drug uptake.
The nature of data set [6]: Clearance in Sprague-Dawley rat plasma at 1 mg/kg, iv administered as 30 mins infusion by LC-MS/MS analysis. The class given is ADME, organism-based.
The target in data set [7] is Serine/threonine-protein kinase B-raf (Homo sapiens, UniProt P15056). Kind of data set: Inhibition of full length His6-tagged BRAF (unknown origin) expressed in baculovirus expression system assessed as reduction in MEK phosphorylation by measuring ADP production by BRAMA.
The target in data set [8] is T1, Serine/threonine-protein kinase TNNI3K (Homo sapiens, UniProt Q59H18).
T1 sequence (Q59H18 whole entry): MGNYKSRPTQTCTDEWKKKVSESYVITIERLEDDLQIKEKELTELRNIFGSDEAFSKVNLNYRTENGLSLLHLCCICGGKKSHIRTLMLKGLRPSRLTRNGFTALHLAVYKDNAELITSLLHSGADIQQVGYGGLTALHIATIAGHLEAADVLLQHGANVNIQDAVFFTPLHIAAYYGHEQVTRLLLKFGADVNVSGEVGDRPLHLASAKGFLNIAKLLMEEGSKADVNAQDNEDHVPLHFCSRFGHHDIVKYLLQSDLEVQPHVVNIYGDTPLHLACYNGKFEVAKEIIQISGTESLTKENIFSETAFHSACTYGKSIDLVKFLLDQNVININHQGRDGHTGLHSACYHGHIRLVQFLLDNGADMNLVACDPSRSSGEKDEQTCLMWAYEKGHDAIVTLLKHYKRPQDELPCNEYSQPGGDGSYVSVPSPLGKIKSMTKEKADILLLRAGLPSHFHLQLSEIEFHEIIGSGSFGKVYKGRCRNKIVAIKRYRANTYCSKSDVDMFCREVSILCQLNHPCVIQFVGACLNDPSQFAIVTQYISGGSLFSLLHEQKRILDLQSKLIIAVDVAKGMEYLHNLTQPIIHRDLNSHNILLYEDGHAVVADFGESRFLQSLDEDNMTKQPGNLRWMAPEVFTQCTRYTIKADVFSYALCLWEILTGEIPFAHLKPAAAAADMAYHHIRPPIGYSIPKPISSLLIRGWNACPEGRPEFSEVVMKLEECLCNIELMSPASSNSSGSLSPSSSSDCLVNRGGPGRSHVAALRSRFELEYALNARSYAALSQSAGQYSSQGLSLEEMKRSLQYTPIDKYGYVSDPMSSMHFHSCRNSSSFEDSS
Kind of data set: Inhibition of 5-({[2-({[3-({4-[(5-hydroxy-2-methylphenyl)amino]-2-pyrimidinyl}amino)phenyl]carbonyl}amino)-ethyl]amino}carbonyl)-2-(6-hydroxy-3-oxo-3H-xanthen-9-yl)benzoic acid binding to human full length His/MBP-fused TNNI3K expressed in baculovirus expression system after 60 mins by fluorescence polarization assay. Background: Polarisation of emitted light reports the rotation of a fluorescent probe.

Data set [9] in a line: Fraction unbound in mouse plasma. It is filed as ADME, cell-free.
The target in data set [10] is T1, Serine/threonine-protein kinase TNNI3K. As to the kind of experiment: Inhibition of human Myc-tagged TNNI3K autophosphorylation expressed in HEKMSR2 cells after 30 mins by DELFIA. It is filed as cell-based.
The test system of data set [11] is Blood. Kind of data set: Unbound drug level in mouse blood at 100 mg/kg/day administered through diet. The class given is ADME, organism-based. The conditions noted are these: in vivo.
Data set [12] can be described thus: Oral bioavailability in Sprague-Dawley rat plasma at 2 mg/kg administered as gastric bolus dose by LC-MS/MS analysis. It is filed as ADME, organism-based.

Chain of Epidermal growth factor receptor (P00533 whole entry, the tested form may be a part): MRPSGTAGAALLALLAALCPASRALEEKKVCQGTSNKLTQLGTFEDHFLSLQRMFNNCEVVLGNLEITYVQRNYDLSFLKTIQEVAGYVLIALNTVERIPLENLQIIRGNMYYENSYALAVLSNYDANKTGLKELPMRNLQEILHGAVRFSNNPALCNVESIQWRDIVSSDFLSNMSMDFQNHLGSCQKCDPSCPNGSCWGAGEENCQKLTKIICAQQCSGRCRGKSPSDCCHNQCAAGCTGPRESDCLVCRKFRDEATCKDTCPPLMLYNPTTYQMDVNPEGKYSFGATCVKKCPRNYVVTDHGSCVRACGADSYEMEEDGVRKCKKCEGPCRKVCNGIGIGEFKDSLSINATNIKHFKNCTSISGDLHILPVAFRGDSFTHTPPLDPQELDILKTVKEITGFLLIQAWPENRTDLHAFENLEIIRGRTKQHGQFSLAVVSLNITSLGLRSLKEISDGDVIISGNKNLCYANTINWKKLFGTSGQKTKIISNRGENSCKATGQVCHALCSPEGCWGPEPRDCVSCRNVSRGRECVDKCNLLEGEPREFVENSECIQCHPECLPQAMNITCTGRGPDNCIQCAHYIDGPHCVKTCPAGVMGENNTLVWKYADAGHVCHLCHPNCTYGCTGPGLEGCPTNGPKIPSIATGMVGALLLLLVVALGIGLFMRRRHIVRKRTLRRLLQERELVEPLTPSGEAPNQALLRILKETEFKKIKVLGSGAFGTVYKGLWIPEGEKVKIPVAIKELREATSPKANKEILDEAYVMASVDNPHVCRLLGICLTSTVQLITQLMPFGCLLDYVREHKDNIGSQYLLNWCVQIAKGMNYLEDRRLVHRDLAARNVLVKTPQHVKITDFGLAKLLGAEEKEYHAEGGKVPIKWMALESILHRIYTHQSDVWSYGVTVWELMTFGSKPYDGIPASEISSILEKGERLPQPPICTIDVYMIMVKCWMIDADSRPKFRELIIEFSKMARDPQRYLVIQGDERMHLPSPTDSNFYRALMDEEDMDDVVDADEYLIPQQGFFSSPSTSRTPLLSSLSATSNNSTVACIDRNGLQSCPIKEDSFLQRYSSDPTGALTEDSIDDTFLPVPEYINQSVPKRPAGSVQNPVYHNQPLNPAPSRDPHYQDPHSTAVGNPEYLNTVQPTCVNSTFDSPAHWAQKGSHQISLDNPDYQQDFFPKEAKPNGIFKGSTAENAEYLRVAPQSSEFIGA
Chain of Serine/threonine-protein kinase B-raf (P15056 whole entry): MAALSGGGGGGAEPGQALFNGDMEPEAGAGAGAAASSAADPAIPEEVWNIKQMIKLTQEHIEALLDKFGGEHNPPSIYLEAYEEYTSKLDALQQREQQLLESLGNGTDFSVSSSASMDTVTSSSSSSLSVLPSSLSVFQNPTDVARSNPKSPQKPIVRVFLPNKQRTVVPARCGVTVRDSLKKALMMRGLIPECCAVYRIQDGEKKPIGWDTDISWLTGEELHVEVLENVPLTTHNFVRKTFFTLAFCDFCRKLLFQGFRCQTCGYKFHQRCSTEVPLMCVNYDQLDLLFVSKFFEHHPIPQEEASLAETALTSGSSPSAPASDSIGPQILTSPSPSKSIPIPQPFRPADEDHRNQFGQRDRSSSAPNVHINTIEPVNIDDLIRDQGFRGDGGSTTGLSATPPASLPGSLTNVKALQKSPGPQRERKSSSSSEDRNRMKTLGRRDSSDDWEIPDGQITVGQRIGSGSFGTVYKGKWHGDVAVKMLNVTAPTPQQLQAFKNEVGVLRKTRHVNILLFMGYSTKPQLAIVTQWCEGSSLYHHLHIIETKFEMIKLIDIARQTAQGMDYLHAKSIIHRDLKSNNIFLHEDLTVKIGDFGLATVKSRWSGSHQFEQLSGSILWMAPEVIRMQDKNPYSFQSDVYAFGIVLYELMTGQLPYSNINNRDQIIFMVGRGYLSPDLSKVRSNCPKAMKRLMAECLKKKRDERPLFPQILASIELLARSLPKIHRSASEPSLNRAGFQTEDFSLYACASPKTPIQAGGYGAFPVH

For the molecule `CCS(=O)(=O)c1ccc(S(=O)(=O)NC)cc1Nc1cc(Nc2ccc(Cl)cn2)ncn1`, the AUC/dose with Rattus norvegicus was found to be 0.56 kg·h/L. For the same molecule, the Vd in data set [1] was 1.9 L/kg. In addition, the concentration in the data set on Heart was 1.1 µM; in the data set with Blood [5], 0.4 to 1.6 µM. Besides, the IC50 was over 25 µM in [2], 0.25 µM in data set [7], at most 0.01 µM in data set [8] and 0.008 µM in data set [10]. The half-life in data set [3] was 2.3 h. Also, the “Ratio IC50” value in [4] was “>=25”. Besides, the clearance in [6] turned out to be 0.84 L/h/kg. The fraction unbound in data set [9] was found to be 0.035. The Drug uptake(free) in the data set with Blood [11] was in the range of 14 to 56 nM. This molecule also yielded a bioavailability in data set [12] of 48%.

As usually defined, the IC50 is the point on the concentration scale where inhibition reaches its midpoint. In general, half-life refers to the time in which the quantity being followed falls by half. As usually defined, the clearance is the volume of plasma or blood freed of the substance per unit of time. The fraction unbound is free concentration divided by total concentration. A higher fraction unbound goes with much free substance. Usually bioavailability stands for dose-corrected exposure relative to a reference, in per cent.
